Like-named read-outs stand apart in the source and are kept apart here.
Columns and labels:
Assay in all cases: biochemical
NDM-1 = NDM-1 (Klebsiella pneumoniae, UniProt C7C422); assay type: biochemical; settings: for IC50: 10 mM HEPES pH 7.5, 25 °C, average of at least two independent assays; for inhibition of NDM-1, in words: tested up to 200 μM
VIM-1 = VIM-1 (Pseudomonas aeruginosa, UniProt A0A0F7KYQ8); assay type: biochemical; settings: for inhibition of VIM-1, in words: tested up to 200 μM
IMP-1 = IMP-1 (Serratia marcescens, UniProt P52699); assay type: biochemical; settings: for inhibition of IMP-1, in words: tested up to 200 μM
IMP-1, sequence (P52699 19-246, looked up, species assumed): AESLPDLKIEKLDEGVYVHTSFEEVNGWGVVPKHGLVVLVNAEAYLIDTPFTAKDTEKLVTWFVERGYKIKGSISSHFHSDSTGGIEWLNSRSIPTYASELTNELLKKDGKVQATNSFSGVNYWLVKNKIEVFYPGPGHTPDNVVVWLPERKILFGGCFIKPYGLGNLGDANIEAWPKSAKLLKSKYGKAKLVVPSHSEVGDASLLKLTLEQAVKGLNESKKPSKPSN

VIM-2 = VIM-2 (Escherichia coli, UniProt Q5U7L7)
[1] = 300 μM imipenem, read-out: NDM-1 IC50
[2] = 300 μM imipenem, 10 mM HEPES pH 7.5, 25 °C, average of at least two independent assays, read-out: VIM-1 IC50
[3] = 300 μM imipenem, 10 mM HEPES pH 7.5, 25 °C, average of at least two independent assays, read-out: IMP-1 IC50

NDM-1, sequence (C7C422 29-270, looked up, species assumed): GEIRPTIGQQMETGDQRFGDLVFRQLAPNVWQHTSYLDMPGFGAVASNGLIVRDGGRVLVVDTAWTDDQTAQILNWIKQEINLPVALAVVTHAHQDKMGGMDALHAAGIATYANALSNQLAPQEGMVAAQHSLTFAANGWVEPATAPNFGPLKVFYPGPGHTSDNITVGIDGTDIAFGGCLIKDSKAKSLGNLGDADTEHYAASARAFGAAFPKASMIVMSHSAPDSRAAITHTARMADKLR

Row | SMILES | IC50 (NDM-1; [1]) [µM] | IC50 (VIM-1; [2]) [µM] | IC50 (IMP-1; [3]) [µM] | further results
1 | O=C(O)c1ccc2ccccc2n1 [Compound 7] | – | – | – | IC50 (NDM-1; NDM-1 IC50, 300 μM imipenem): 40.9 µM; inhibition of NDM-1, in words (NDM-1): modest inhibition; IC50 (VIM-1): > 200 µM; inhibition of VIM-1, in words (VIM-1): no inhibition; IC50 (IMP-1): > 200 µM; inhibition of IMP-1, in words (IMP-1): no inhibition; IC50 (VIM-2): > 200 µM
2 | Cn1cnc(C(=O)O)c1 [Compound 8] | – | – | – | IC50 (NDM-1; NDM-1 IC50, 300 μM imipenem): > 200 µM; inhibition of NDM-1, in words (NDM-1): no detectable inhibition; IC50 (VIM-1): > 200 µM; inhibition of VIM-1, in words (VIM-1): no detectable inhibition; IC50 (IMP-1): > 200 µM; inhibition of IMP-1, in words (IMP-1): no detectable inhibition; IC50 (VIM-2): > 200 µM
3 | O=C(O)c1cnccn1 [Compound 9] | – | – | – | IC50 (NDM-1; NDM-1 IC50, 300 μM imipenem): > 200 µM; inhibition of NDM-1, in words (NDM-1): no detectable inhibition; IC50 (VIM-1): > 200 µM; inhibition of VIM-1, in words (VIM-1): no detectable inhibition; IC50 (IMP-1): > 200 µM; inhibition of IMP-1, in words (IMP-1): no detectable inhibition; IC50 (VIM-2): > 200 µM
4 | O=C(O)c1cccnn1 [Compound 10] | – | – | – | IC50 (NDM-1; NDM-1 IC50, 300 μM imipenem): > 200 µM; inhibition of NDM-1, in words (NDM-1): no detectable inhibition; IC50 (VIM-1): > 200 µM; inhibition of VIM-1, in words (VIM-1): no detectable inhibition; IC50 (IMP-1): > 200 µM; inhibition of IMP-1, in words (IMP-1): no detectable inhibition; IC50 (VIM-2): > 200 µM
5 | O=C(O)c1cc2ccccc2cn1 [Compound 11] | – | – | – | inhibition of NDM-1, in words (NDM-1): modest inhibition; inhibition of VIM-1, in words (VIM-1): no inhibition; inhibition of IMP-1, in words (IMP-1): no inhibition
6 | O=C(O)c1ncccc1-c1ccncc1 [Compound 12] | – | – | – | IC50 (NDM-1; NDM-1 IC50, 300 μM imipenem): > 200 µM; IC50 (VIM-1): > 200 µM; IC50 (IMP-1): > 200 µM; IC50 (VIM-2): > 200 µM
7 | O=C(O)c1ncccc1-c1ccoc1 [Compound 13] | – | – | – | IC50 (NDM-1; NDM-1 IC50, 300 μM imipenem): > 200 µM; IC50 (VIM-1): > 200 µM; IC50 (IMP-1): > 200 µM; IC50 (VIM-2): > 200 µM
8 | O=C(O)c1ncccc1-c1ccc(F)c(F)c1 [Compound 14] | – | – | – | IC50 (NDM-1; NDM-1 IC50, 300 μM imipenem): > 200 µM; IC50 (VIM-1): > 200 µM; IC50 (IMP-1): > 200 µM; IC50 (VIM-2): > 200 µM
9 | O=C(O)c1cccc(-c2ccoc2)n1 [Compound 15] | – | – | – | IC50 (NDM-1; NDM-1 IC50, 300 μM imipenem): 163 µM; IC50 (VIM-1): > 200 µM; IC50 (IMP-1): > 200 µM; IC50 (VIM-2): > 200 µM
10 | O=C(O)c1cccc(-c2ccc(F)c(F)c2)n1 [Compound 16] | – | – | – | IC50 (NDM-1; NDM-1 IC50, 300 μM imipenem): > 200 µM; IC50 (VIM-1): > 200 µM; IC50 (IMP-1): > 200 µM; IC50 (VIM-2): > 200 µM
11 | O=C(CCc1ccccc1)Nc1cccnc1C(=O)O [Compound 19] | 20.3 | > 200 | 34.1 | –
12 | CCCCC(=O)Nc1cccnc1C(=O)O [Compound 20] | 11.1 | > 200 | 157 | –
13 | O=C(Cc1c(Cl)cccc1Cl)Nc1cccnc1C(=O)O [Compound 21] | 8.99 | > 200 | > 200 | –
14 | COc1ccc(C(=O)Nc2cccc(C(=O)O)n2)cc1 [Compound 24] | 20.3 | > 200 | 156 | –
15 | O=C(O)c1cccc(NC(=O)c2cocn2)n1 [Compound 25] | 55.9 | > 200 | > 200 | –
16 | CCCCC(=O)Nc1cccc(C(=O)O)n1 [Compound 26] | 19.4 | > 200 | > 200 | –
17 | O=C(Cc1c(Cl)cccc1Cl)Nc1cccc(C(=O)O)n1 [Compound 27] | > 200 | > 200 | 80 | –
18 | O=C(Cc1ccc(Cl)c(Cl)c1)Nc1cccc(C(=O)O)n1 [Compound 28] | 3.56 | > 200 | 82.2 | –
19 | O=C(Cc1cccs1)Nc1cccc(C(=O)O)n1 [Compound 29] | > 200 | > 200 | > 200 | –
20 | CS(=O)(=O)c1ccc(S(=O)(=O)Nc2cccnc2C(=O)O)cc1 [Compound 30] | 69.9 | > 200 | > 200 | –
21 | CS(=O)(=O)Nc1cccnc1C(=O)O [Compound 31] | 68.8 | > 200 | > 200 | –
22 | N#Cc1cccc(S(=O)(=O)Nc2cccnc2C(=O)O)c1 [Compound 33] | 148 | > 200 | > 200 | –
23 | O=C(O)c1ncccc1NS(=O)(=O)c1ccccc1Cl [Compound 34] | > 200 | > 200 | > 200 | –

Row | SMILES | IC50 (NDM-1; [1]) [µM] | IC50 (VIM-1; [2]) [µM] | IC50 (IMP-1; [3]) [µM] | further results
24 | O=C(O)c1ncccc1NS(=O)(=O)c1ccc(F)cc1 [Compound 35] | 52.1 | > 200 | > 200 | –
25 | O=C(O)c1ncccc1NS(=O)(=O)Cc1cccc(F)c1 [Compound 36] | > 200 | 108 | 152 | –
26 | O=C(O)c1ncccc1NS(=O)(=O)Cc1ccc(Cl)cc1 [Compound 42] | 18.4 | 88.4 | 146 | –
27 | O=C(O)c1ncccc1NS(=O)(=O)Cc1ccc([N+](=O)[O-])cc1 [Compound 44] | 120 | > 200 | > 200 | –
28 | COc1cccc(S(=O)(=O)Nc2cccc(C(=O)O)n2)c1 [Compound 45] | 43.3 | > 200 | > 200 | –
29 | O=C(O)c1cccc(NS(=O)(=O)Cc2ccccc2)n1 [Compound 46] | 43.7 | > 200 | > 200 | –
30 | CS(=O)(=O)Nc1cccc(C(=O)O)n1 [Compound 47] | 32.8 | > 200 | > 200 | –
31 | O=C(O)c1cccc(C(=O)NCc2nccs2)n1 [Compound 48] | > 200 | > 200 | > 200 | –
32 | CCCCNC(=O)c1cccc(C(=O)O)n1 [Compound 49] | > 200 | > 200 | > 200 | –
33 | COc1cccc(CC(=O)Nc2ccnc(C(=O)O)c2)c1 [Compound 50] | 35.3 | > 200 | > 200 | –
34 | CCCCC(=O)Nc1ccnc(C(=O)O)c1 [Compound 51] | 11.5 | > 200 | > 200 | –
35 | O=C(Cc1ccccc1)Nc1ccnc(C(=O)O)c1 [Compound 52] | 11.6 | > 200 | > 200 | –
36 | O=C(Cc1cccs1)Nc1ccnc(C(=O)O)c1 [Compound 53] | 43 | > 200 | > 200 | –
37 | O=C(O)c1cc(NS(=O)(=O)Cc2ccccc2)ccn1 [Compound 54] | 65 | > 200 | > 200 | –
38 | O=C(O)c1cc(NS(=O)(=O)c2ccccc2)ccn1 [Compound 55] | 145 | > 200 | > 200 | –
39 | O=C(Cc1ccccc1)Nc1ccc(C(=O)O)nc1 [Compound 56] | 21.4 | > 200 | > 200 | –
40 | O=C(Cc1ccc(F)cc1)Nc1ccc(C(=O)O)nc1 [Compound 57] | 27.9 | > 200 | > 200 | –
41 | O=C(O)c1ccc(NS(=O)(=O)Cc2ccccc2)cn1 [Compound 58] | 3.99 | > 200 | > 200 | –
42 | O=C(O)c1ccc(NS(=O)(=O)c2ccccc2)cn1 [Compound 59] | 2.17 | 109 | 114 | –
43 | N#Cc1cccc(S(=O)(=O)Nc2ccc(C(=O)O)nc2)c1 [Compound 60] | 7.2 | > 200 | 162 | –
44 | O=C(O)c1ncccc1NS(=O)(=O)Cc1ccccc1Cl [Compound 67] | – | – | – | IC50 (NDM-1; NDM-1 IC50, 300 μM imipenem): 32.6 µM; IC50 (VIM-1): 10.9 µM
45 | O=C(O)c1ncccc1NS(=O)(=O)Cc1ccc(Cl)c(Cl)c1 [Compound 69] | – | – | – | IC50 (NDM-1; NDM-1 IC50, 300 μM imipenem): > 200 µM; IC50 (VIM-1): > 200 µM; IC50 (IMP-1): > 200 µM
46 | O=C(O)c1ncccc1NS(=O)(=O)Cc1ccc(Cl)cc1Cl [Compound 71] | – | – | – | IC50 (NDM-1; NDM-1 IC50, 300 μM imipenem): 80.6 µM; IC50 (VIM-1): 17.5 µM; IC50 (IMP-1): 74.3 µM

Reference: PMC6332448, “SAR Studies Leading to the Identification of a Novel Series of Metallo-β-lactamase Inhibitors for the Treatment of Carbapenem-Resistant Enterobacteriaceae Infections That Display Efficacy in an Animal Infection Model” (ACS Infectious Diseases, 2018)
